Source: patent US6852740B2, “Pyrazole derivatives as p38 kinase inhibitors” (G. D. Searle & Co., priority 1997, dated 2005)
pIC50: −log10 of the molar value.

Tests used:
human p38 kinase alpha [1] = molecular target: T1, human p38 kinase alpha (Homo sapiens, UniProt Q16539); assay: p38α in vitro kinase assay, PHAS-I procedure; type: biochemical
T1 construct: The coding region of the human p38a cDNA was obtained by PCR-amplification from RNA; made in house; host or cells: E. coli DH10B
Experimental: The ability of compounds to inhibit human p38 kinase alpha was evaluated using two in vitro assay methods. In the first method, activated human p38 kinase alpha phosphorylates a biotinylated substrate, PHAS-I (phosphorylated heat and acid stable protein-insulin inducible), in the presence of gamma ^32P-ATP (^32P-ATP). PHAS-I was biotinylated prior to the assay and provides a means of capturing the substrate which is phosphorylated during the assay. p38 Kinase was activated by MKK6. Compounds were tested in 10 fold serial dilutions over the range of 100 μM to 0.001 μM using 1% DMSO. Each concentration of inhibitor was tested in triplicate.
All reactions were carried out in 96 well polypropylene plates. Each reaction well contained 25 mM HEPES pH 7.5, 10 mM magnesium acetate and 50 μM unlabeled ATP. Activation of p38 was required to achieve sufficient signal in the assay. Biotinylated PHAS-I was used at 1-2 μg per 50 μl reaction volume, with a final concentration of 1.5 μM. Activated human p38 kinase alpha was used at 1 μg per 50 μl reaction volume representing a final concentration of 0.3 μM. […]
Following incubation, 20 μl of reaction mixture was transferred to a high capacity streptavidin coated filter plate (SAM-streptavidin-matrix, Promega) prewetted with phosphate buffered saline. […] The plates were sealed and counted.

human p38 kinase alpha [2] = molecular target: T1, human p38 kinase alpha; assay: p38α in vitro kinase assay, EGFRP procedure; type: biochemical
Experimental: A second assay format was also employed that is based on p38 kinase alpha induced phosphorylation of EGFRP (epidermal growth factor receptor peptide, a 21 mer) in the presence of ^33P-ATP. Compounds were tested in 10 fold serial dilutions over the range of 100 μM to 0.001 μM in 1% DMSO. Each concentration of inhibitor was tested in triplicate. Compounds were evaluated in 50 μl reaction volumes in the presence of 25 mM Hepes pH 7.5, 10 mM magnesium acetate, 4% glycerol, 0.4% bovine serum albumin, 0.4 mM DTT, 50 μM unlabeled ATP, 25 μg EGFRP (200 μM), and 0.05 uCi gamma ^33P-ATP. Reactions were initiated by addition of 0.09 μg of activated, purified human GST-p38 kinase alpha. Activation was carried out using GST-MKK6 (5:1,p38:MKK6) for one hour at 30° C. in the presence of 50 μM ATP. Following incubation for 60 minutes at room temperature, the reaction was stopped by addition of 150 μl of AG 1×8 resin in 900 mM sodium formate buffer, pH 3.0 (1 volume resin to 2 volumes buffer). The mixture was mixed three times with pipetting and the resin was allowed to settle. A total of 50 μl of clarified solution head volume was transferred from the reaction wells to Microlite-2 plates. 150 μl of Microscint 40 was then added to each well of the Microlite plate, and the plate was sealed, mixed, and counted.

[3] = tested on: TNF-α release by U937 cells; assay: LPS stimulation of TNF production by U937 cells; type: cell-based; settings: Homo sapiens, U-937; LPS-stimulated differentiated U937 cells, TNF-α by ELISA after 4 hour incubation; read-out: TNF Cell IC50
Experimental: U937 cells (ATCC) were propagated in RPMI 1640 containing 10% fetal bovine serum, 100 IU/ml penicillin, 100 μg/ml streptomycin, and 2 mM glutamine (Gibco). Fifty million cells in 100 ml media were induced to terminal monocytic differentiation by 24 hour incubation with 20 ng/ml phorbol 12-myristate 13-acetate (Sigma). The cells were washed by centrifugation (200×g for 5 min) and resuspended in 100 ml fresh medium. After 24-48 hours, the cells were harvested, centrifuged, and resuspended in culture medium at 2 million cells/ml.
U937 cells (0.1 ml, 2 million/ml) were incubated with 0.1 ml compound (0.004-50 μM, final concentration) for 1 hour in 96 well microtiter plates. Compounds were prepared as 10 mM stock solutions in DMSO and diluted in culture medium to yield a final DMSO concentration of 0.1% in the cell assay. LPS (E coli, 100 ng/ml final concentration) was then added at a volume of 0.02 ml. After 4 hour incubation at 37° C., the amount of TNF-α released in the culture medium was quantitated by ELISA. Inhibitory potency is expressed as IC50 (μM).

T1 sequence (Q16539 whole entry): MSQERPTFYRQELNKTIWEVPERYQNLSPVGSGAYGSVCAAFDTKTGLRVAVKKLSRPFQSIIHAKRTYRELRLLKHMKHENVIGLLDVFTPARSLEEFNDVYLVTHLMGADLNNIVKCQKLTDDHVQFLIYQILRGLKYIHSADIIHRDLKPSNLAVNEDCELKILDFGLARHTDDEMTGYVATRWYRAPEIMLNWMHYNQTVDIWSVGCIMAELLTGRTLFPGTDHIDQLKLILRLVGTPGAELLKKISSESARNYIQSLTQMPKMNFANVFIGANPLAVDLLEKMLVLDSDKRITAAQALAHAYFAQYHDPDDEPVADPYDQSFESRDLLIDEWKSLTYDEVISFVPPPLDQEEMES

pIC50 (human p38 kinase alpha [1])	pIC50 (human p38 kinase alpha [2])	pIC50 [3]	melting point	Compound
5.06	6.18	6.22		Cc1n[nH]c(/C=C/c2ccccc2)c1-c1ccncc1 [Example 1, 4-[3-Methyl-5-(2-phenylethenyl)-1H-pyrazol-4-yl]pyridine]
6.00	5.55	5.64		Cc1n[nH]c(CCc2ccccc2)c1-c1ccncc1 [Example 2, 4-[3-Methyl-5-(2-phenylethyl)-1H-pyrazol-4-yl]pyridine]
			125 to 131 °C	c1ccc(CCc2n[nH]cc2-c2ccncc2)cc1 [Example 3, 4-[5-(2-phenylethyl)-1H-pyrazol-4-yl]pyridine]
